Reference: PubChem BioAssay (NCI)
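Each compound was tested at five concentrations against cells in 96-well plates for 48 hours. At the TGI there is no net growth.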

What was measured:
Assay in all cases: inhibition of tumour cell growth, NCI panel, 48 h
RPMI-8226 leukemia = test system: RPMI-8226 leukemia
IGROV1 ovarian = test system: IGROV1 ovarian
CCRF-CEM leukemia = test system: CCRF-CEM leukemia
UO-31 renal = test system: UO-31 renal
K-562 leukemia = test system: K-562 leukemia
SF-539 CNS = test system: SF-539 CNS
A549 NSCLC = test system: A549 NSCLC
SN12C renal = test system: SN12C renal
UACC-257 melanoma = test system: UACC-257 melanoma
SK-MEL-28 melanoma = test system: SK-MEL-28 melanoma
HCT-15 colon = test system: HCT-15 colon
KM12 colon = test system: KM12 colon
786-0 renal = test system: 786-0 renal
SR leukemia = test system: SR leukemia
SF-268 CNS = test system: SF-268 CNS
M19-MEL melanoma = test system: M19-MEL melanoma
NCI-H23 lung = test system: NCI-H23 lung
U251 CNS = test system: U251 CNS
NCI-H226 lung = test system: NCI-H226 lung
SNB-19 CNS = test system: SNB-19 CNS
HCT-116 colon = test system: HCT-116 colon
KM20L2 colon = test system: KM20L2 colon
SK-OV-3 ovarian = test system: SK-OV-3 ovarian
OVCAR-3 ovarian = test system: OVCAR-3 ovarian
NCI-H522 lung = test system: NCI-H522 lung
MOLT-4 leukemia = test system: MOLT-4 leukemia
SK-MEL-2 melanoma = test system: SK-MEL-2 melanoma
LXFL 529 NSCLC = test system: LXFL 529 NSCLC
RXF-631 renal = test system: RXF-631 renal
HT29 colon = test system: HT29 colon
SNB-75 CNS = test system: SNB-75 CNS
CAKI-1 renal = test system: CAKI-1 renal
MALME-3M melanoma = test system: MALME-3M melanoma
TK-10 renal = test system: TK-10 renal
SNB-78 CNS = test system: SNB-78 CNS
M14 melanoma = test system: M14 melanoma
LOX IMVI melanoma = test system: LOX IMVI melanoma
XF 498 CNS = test system: XF 498 CNS
HL-60(TB) leukemia = test system: HL-60(TB) leukemia
UACC-62 melanoma = test system: UACC-62 melanoma
SW-620 colon = test system: SW-620 colon
SF-295 CNS = test system: SF-295 CNS
ACHN renal = test system: ACHN renal
EKVX NSCLC = test system: EKVX NSCLC
DLD-1 colon = test system: DLD-1 colon
HOP-92 NSCLC = test system: HOP-92 NSCLC
DMS 273 small cell lung = test system: DMS 273 small cell lung
RXF 393 renal = test system: RXF 393 renal
HCC-2998 colon = test system: HCC-2998 colon
OVCAR-8 ovarian = test system: OVCAR-8 ovarian
OVCAR-5 ovarian = test system: OVCAR-5 ovarian
HOP-18 NSCLC = test system: HOP-18 NSCLC
OVCAR-4 ovarian = test system: OVCAR-4 ovarian
COLO 205 colon = test system: COLO 205 colon
NCI-H460 lung = test system: NCI-H460 lung
DMS 114 small cell lung = test system: DMS 114 small cell lung
SK-MEL-5 melanoma = test system: SK-MEL-5 melanoma
HOP-62 NSCLC = test system: HOP-62 NSCLC

Work on `O=C(NCCc1ccccc1)C1C(=O)C(=O)N(CCc2ccccc2)C1=O` (centres undefined) yielded a TGI (RPMI-8226 leukemia) of over 100 µM, a TGI (IGROV1 ovarian) of over 100 µM and a TGI (CCRF-CEM leukemia) of over 100 µM. It also gave a TGI (UO-31 renal) of over 100 µM, a TGI (K-562 leukemia) of over 100 µM and a TGI (SF-539 CNS) of over 100 µM. It also gave a TGI (A549 NSCLC) of over 100 µM, a TGI (SN12C renal) of over 100 µM and a TGI (UACC-257 melanoma) of over 100 µM. It also gave a TGI (SK-MEL-28 melanoma) of over 100 µM, a TGI (HCT-15 colon) of over 100 µM and a TGI (KM12 colon) of over 100 µM. It also gave a TGI (786-0 renal) of over 100 µM, a TGI (SR leukemia) of over 100 µM and a TGI (SF-268 CNS) of over 100 µM. For the same compound, the TGI (M19-MEL melanoma) was over 100 µM, the TGI (NCI-H23 lung) was over 100 µM and the TGI (U251 CNS) was over 100 µM. It also gave a TGI (NCI-H226 lung) of over 100 µM, a TGI (SNB-19 CNS) of over 100 µM and a TGI (HCT-116 colon) of over 100 µM. It also gave a TGI (KM20L2 colon) of over 100 µM, a TGI (SK-OV-3 ovarian) of over 100 µM and a TGI (OVCAR-3 ovarian) of over 100 µM. For the same compound, the TGI (NCI-H522 lung) was over 100 µM, the TGI (MOLT-4 leukemia) was over 100 µM and the TGI (SK-MEL-2 melanoma) was over 100 µM. It also gave a TGI (LXFL 529 NSCLC) of over 100 µM, a TGI (RXF-631 renal) of over 100 µM and a TGI (HT29 colon) of over 100 µM. The TGI (SNB-75 CNS) was over 100 µM, the TGI (CAKI-1 renal) was over 100 µM and the TGI (MALME-3M melanoma) was over 100 µM. It also gave a TGI (TK-10 renal) of over 100 µM, a TGI (SNB-78 CNS) of over 100 µM and a TGI (M14 melanoma) of over 100 µM. It also gave a TGI (LOX IMVI melanoma) of over 100 µM, a TGI (XF 498 CNS) of over 100 µM and a TGI (HL-60(TB) leukemia) of over 100 µM. The TGI (UACC-62 melanoma) was over 100 µM, the TGI (SW-620 colon) was over 100 µM and the TGI (SF-295 CNS) was over 100 µM. It also gave a TGI (ACHN renal) of over 100 µM, a TGI (EKVX NSCLC) of over 100 µM and a TGI (DLD-1 colon) of over 100 µM. For the same compound, the TGI (HOP-92 NSCLC) was over 100 µM and the TGI (DMS 273 small cell lung) was over 100 µM.
`O=C(c1ccccc1)[C@H]1Nc2ccc(Cl)cc2[C@H]2CCC[C@@H]12` showed a TGI (RPMI-8226 leukemia) of 57.1 µM, a TGI (IGROV1 ovarian) of over 100 µM and a TGI (RXF 393 renal) of 82.6 µM. For the same compound, the TGI (UO-31 renal) was over 100 µM, the TGI (K-562 leukemia) was 64.5 µM and the TGI (SF-539 CNS) was over 100 µM. For the same compound, the TGI (A549 NSCLC) was over 100 µM, the TGI (HCC-2998 colon) was over 100 µM and the TGI (SN12C renal) was 92.5 µM. The TGI (OVCAR-8 ovarian) was over 100 µM, the TGI (SK-MEL-28 melanoma) was 92.6 µM and the TGI (HCT-15 colon) was 98.3 µM. It also gave a TGI (KM12 colon) of over 100 µM, a TGI (786-0 renal) of over 100 µM and a TGI (SR leukemia) of over 100 µM. For the same compound, the TGI (SF-268 CNS) was over 100 µM, the TGI (M19-MEL melanoma) was over 100 µM and the TGI (OVCAR-5 ovarian) was over 100 µM. The TGI (NCI-H23 lung) was 78 µM, the TGI (U251 CNS) was over 100 µM and the TGI (NCI-H226 lung) was 63.3 µM. The TGI (SNB-19 CNS) was over 100 µM, the TGI (HCT-116 colon) was 41.5 µM and the TGI (HOP-18 NSCLC) was 59.6 µM. It also gave a TGI (OVCAR-4 ovarian) of 75.9 µM, a TGI (KM20L2 colon) of over 100 µM and a TGI (OVCAR-3 ovarian) of 68.6 µM. It also gave a TGI (NCI-H522 lung) of 59.9 µM, a TGI (MOLT-4 leukemia) of 86.8 µM and a TGI (SK-MEL-2 melanoma) of 49.5 µM. For the same compound, the TGI (LXFL 529 NSCLC) was 64.9 µM, the TGI (RXF-631 renal) was over 100 µM and the TGI (COLO 205 colon) was 91.7 µM. It also gave a TGI (NCI-H460 lung) of 88 µM, a TGI (HT29 colon) of 62.2 µM and a TGI (SNB-75 CNS) of over 100 µM. It also gave a TGI (CAKI-1 renal) of over 100 µM, a TGI (MALME-3M melanoma) of 51.3 µM and a TGI (TK-10 renal) of over 100 µM. The TGI (SNB-78 CNS) was over 100 µM, the TGI (M14 melanoma) was 29.2 µM and the TGI (LOX IMVI melanoma) was 19.9 µM. It also gave a TGI (DMS 114 small cell lung) of over 100 µM, a TGI (SK-MEL-5 melanoma) of 23 µM and a TGI (XF 498 CNS) of 54.2 µM. It also gave a TGI (HOP-62 NSCLC) of over 100 µM, a TGI (UACC-62 melanoma) of over 100 µM and a TGI (SW-620 colon) of over 100 µM. It also gave a TGI (SF-295 CNS) of over 100 µM, a TGI (ACHN renal) of 57.9 µM and a TGI (DLD-1 colon) of over 100 µM. For the same compound, the TGI (DMS 273 small cell lung) was over 100 µM.
